# Patent EP1452605A1, “Method for determining antiviral activity” (Universiteit Utrecht Holding B.V., priority 2003, dated 2004)
# What was measured:
# HIV-1Ba-L [1] = experiment: HIV-1 infection of PBMC, p24-core antigen ELISA; assay type: cell-based; conditions: for antiviral activity compared to APHS / antiviral activity compared to compound 18: PBMC, HIV-1Ba-L
# Procedure: To correct for the input virus, an extra control consisting of medium containing the same amount of input virus as added to the cells was included in the experiment. The amount of p24 in this control was subsequently subtracted from the p24 values of the samples in order to obtain the exact amount of p24 produced by the cells. p24-core antigen quantification by ELISA After 2 or 7 days incubation, samples of the supernatants were collected, inactivated by addition of Empigen (Calbiochem, La Jolla, CA, USA) and by heat inactivation at 56°C for 30 min. p24-core antigen concentration was determined by an enzyme linked immunoabsorbent assay (ELISA) (AMPAK™, DAKO, Cambridgeshire, UK) as described previously ^18,19. The optical density values were converted into p24 concentration (ng/ml) with the use of a calibration curve made by serial dilutions of recombinant p24 protein (NIBSC, UK) that was submitted to the same treatment as the samples.
# (§1) To correct for the input virus, an extra control consisting of medium containing the same amount of input virus as added to the cells was included in the experiment. The amount of p24 in this control was subsequently subtracted from the p24 values of the samples in order to obtain the exact amount of p24 produced by the cells.
# (§2) After 7 days incubation, samples of the supernatants were collected, inactivated by addition of Empigen (Calbiochem, La Jolla, CA, USA) and by heat inactivation at 56°C for 30 min. p24-core antigen concentration was determined by an ELISA (AMPAK™, DAKO, Cambridgeshire, UK) as described previously ^39,40. The optical density values were converted into p24 concentration (ng/ml) with the use of a calibration curve made by serial dilutions of recombinant p24 protein (NIBSC, UK) that was submitted to the same treatment as the samples.
# as §1
# as §2, with “enzyme linked immunoabsorbent assay (ELISA)” for “ELISA”, “15,16.” for “^39,40.”
# PBMC = experiment: Cellular viability assay (MTT) of PBMC; conditions: PBMC
# HIV-1Ba-L [2] = experiment: Combination of HIV-1 inhibitors in HIV-1Ba-L infected PBMC (checker board, CalcuSyn)
# Procedure: After 7 days of incubation, p24 antigen in culture supernatant was quantified by ELISA and cellular viability was assessed by a cytotoxicity assay. fa was calculated for each drug combination after p24 quantification. Using the CalcuSyn program, dose-effect curves were plotted for each drug combination, i.e., each dose was plotted against the corresponding fa value. […] CI values were calculated using the mutually nonexclusive assumption.
# COX-2 = target: T1, COX-2 (Homo sapiens, UniProt P35354); conditions: cited from earlier work
# T1 sequence (P35354 18-604): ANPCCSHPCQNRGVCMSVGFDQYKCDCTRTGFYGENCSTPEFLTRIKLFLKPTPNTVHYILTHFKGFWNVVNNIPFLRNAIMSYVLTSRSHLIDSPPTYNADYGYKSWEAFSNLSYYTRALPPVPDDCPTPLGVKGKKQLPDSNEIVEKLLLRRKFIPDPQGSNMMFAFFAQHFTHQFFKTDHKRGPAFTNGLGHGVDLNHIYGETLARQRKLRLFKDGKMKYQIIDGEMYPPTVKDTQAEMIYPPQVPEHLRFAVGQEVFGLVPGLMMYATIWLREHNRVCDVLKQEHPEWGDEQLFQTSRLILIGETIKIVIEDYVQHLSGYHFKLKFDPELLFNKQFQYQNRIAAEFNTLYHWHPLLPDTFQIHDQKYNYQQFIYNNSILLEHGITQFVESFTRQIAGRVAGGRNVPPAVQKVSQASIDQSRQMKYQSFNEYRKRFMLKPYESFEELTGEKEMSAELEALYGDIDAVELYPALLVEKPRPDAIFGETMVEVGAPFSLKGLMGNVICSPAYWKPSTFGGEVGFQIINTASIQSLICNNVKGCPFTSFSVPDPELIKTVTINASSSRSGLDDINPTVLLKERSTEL
# in vitro = conditions: human, pbmc
# [3] = Human immunodeficiency virus 1, 168 h, PBMC infected with HIV-1Ba-L, p24 antigen after 7 days, read-out: IC50
# [4] = Human immunodeficiency virus 1, PBMC, 168 h
# [5] = Human immunodeficiency virus 1, PBMC, 168 h, read-out: IC50 Drug, drug alone, head over this column prints Combination
# [6] = read-out: IC50 Combination Drug, drug in combination with APHS at the equipotent ratio (1 : 1)
# [7] = PBMC infected with HIV-1Ba-L, p24 antigen after 7 days, read-out: IC50
smiles,measurement,setting,value
"CCCCCCCSc1ccc(OC(C)=O)cc1 [compound 16, Phenol, 4-(heptylthio)-, acetate]",IC50,HIV-1Ba-L [1]; [3],2 µM
same,antiviral activity compared to APHS,HIV-1Ba-L [1],increase
same,cytotoxicity compared to APHS,PBMC,increase
same,fold increase in cytotoxicity compared to APHS,PBMC,about 10
"CCCCC#CCSc1ccccc1OCC [compound 1, Benzene, 1-ethoxy-2-(2-heptynylthio)-]",antiviral activity compared to APHS,HIV-1Ba-L [1],decreased
same,cytotoxicity compared to APHS,PBMC,decreased
CCCSc1ccccc1O [compound 23],IC50,HIV-1Ba-L [1]; [4],5 µM
same,antiviral activity compared to APHS,HIV-1Ba-L [1],improved
CCCCSc1ccccc1O [compound 21],IC50,HIV-1Ba-L [1]; [4],3 µM
same,antiviral activity compared to APHS,HIV-1Ba-L [1],improved
"O=C1Nc2ccc(Cl)cc2[C@@](C#CC2CC2)(C(F)(F)F)O1 [EFV, efavirenz]",IC50,HIV-1Ba-L [2]; [5],0.001 µM
same,IC50,HIV-1Ba-L [2]; [6],0.0002 µM
CCSc1ccccc1O [compound 25],IC50,HIV-1Ba-L [1]; [4],4 µM
same,antiviral activity compared to APHS,HIV-1Ba-L [1],improved
"CC(C)(C)NC(=O)[C@@H]1CN(Cc2cccnc2)CCN1C[C@@H](O)C[C@@H](Cc1ccccc1)C(=O)N[C@H]1c2ccccc2C[C@H]1O [IDV, indinavir]",IC50,HIV-1Ba-L [2]; [5],0.011 µM
same,IC50,HIV-1Ba-L [2]; [6],0.005 µM
CCCCCCCSc1ccccc1OC(C)=O [APHS-d2],"COX-2 activity, potency and selectivity compared with APHS",COX-2,as potent as APHS but less selective against COX-2 than APHS
"CC(C)c1nc(CN(C)C(=O)N[C@H](C(=O)N[C@@H](Cc2ccccc2)C[C@H](O)[C@H](Cc2ccccc2)NC(=O)OCc2cncs2)C(C)C)cs1 [RTV, ritonavir]",IC50,HIV-1Ba-L [2]; [5],0.006 µM
same,IC50,HIV-1Ba-L [2]; [6],0.003 µM
"CCCCOCCSc1ccccc1OC(=O)C(F)(F)F [compound 7, Acetic acid, trifluoro-, 2-(2-butoxyethylthio)phenylester]",antiviral activity compared to APHS,HIV-1Ba-L [1],decreased
same,cytotoxicity compared to APHS,PBMC,decreased
CCCCCCCSc1ccccc1O [compound 10],antiviral activity compared to APHS,HIV-1Ba-L [1],less antiviral activity than APHS
same,cytotoxicity compared to APHS,PBMC,increase
CCCCCSc1ccccc1OC(C)=O [compound 20],antiviral activity compared to compound 18,HIV-1Ba-L [1],worse
"Nc1ccn([C@@H]2CS[C@H](CO)O2)c(=O)n1 [3TC, lamivudine]",IC50,HIV-1Ba-L [2]; [5],0.01 µM
same,IC50,HIV-1Ba-L [2]; [6],0.003 µM
CCCCCCSc1ccccc1O [compound 17],IC50,HIV-1Ba-L [1]; [4],4 µM
same,antiviral activity compared to APHS,HIV-1Ba-L [1],improvement
same,cytotoxicity compared to APHS,PBMC,increase
CCCCC#CCSc1ccccc1O [APHS-d3],"COX-2 activity, potency and selectivity compared with APHS",COX-2,without COX-2 activity
CCCCCCCCSc1ccccc1OC(C)=O [compound 9],IC50,HIV-1Ba-L [1]; [3],20 µM
same,CC50 at 168 h,in vitro,135 µM
CCCSc1ccccc1OC(C)=O [compound 24],antiviral activity compared to compound 18,HIV-1Ba-L [1],worse
CCCCCCCCSc1ccccc1O [compound 8],antiviral activity compared to APHS,HIV-1Ba-L [1],less antiviral activity than APHS
same,cytotoxicity compared to APHS,PBMC,increase
CCSc1ccccc1OC(C)=O [compound 26],antiviral activity compared to compound 18,HIV-1Ba-L [1],worse
CCCCC#CCS(=O)(=O)c1ccccc1OC(C)=O [APHS-d1],"COX-2 activity, potency and selectivity compared with APHS",COX-2,without anti-COX-2 activity
CCCCCSc1ccccc1O [compound 19],IC50,HIV-1Ba-L [1]; [4],0.9 µM
same,antiviral activity compared to APHS,HIV-1Ba-L [1],improved
CSc1ccccc1OC(C)=O [APHS-d4],"COX-2 activity, potency and selectivity compared with APHS",COX-2,more selective than APHS
same,times less potent than APHS against COX-2,COX-2,100
"CCCCCCCSc1ccccc1OC(=O)C(F)(F)F [compound 12, Acetic acid, trifluoro-, 2-(heptylthio) phenylester]",antiviral activity compared to APHS,HIV-1Ba-L [1],decreased
same,cytotoxicity compared to APHS,PBMC,decreased
CCCCCCSc1ccccc1OC(C)=O [compound 18],IC50,HIV-1Ba-L [1]; [7],3 µM
same,CC50,"PBMC; read-out: TC50, 7 days, MTT",119 µM
"CCCCCCCSc1ccccc1OC(=O)CCCC [compound 13, Phenol, 2-(heptylthio)-, valerate]",antiviral activity compared to APHS,HIV-1Ba-L [1],decreased
same,cytotoxicity compared to APHS,PBMC,decreased
CCCCSc1ccccc1OC(C)=O [compound 22],antiviral activity compared to compound 18,HIV-1Ba-L [1],worse
"CCCCCCCSc1ccccc1OC(=O)c1ccccc1 [compound 14, Phenol, 2-(heptylthio)-, benzoate]",antiviral activity compared to APHS,HIV-1Ba-L [1],decreased
same,cytotoxicity compared to APHS,PBMC,increased
"CC(=O)Oc1ccccc1C(=O)O [aspirin, reference compound]",times less potent than APHS against COX-2,COX-2,60
same,times less selective than APHS for COX-2,COX-2,100
CCCCCCCSc1ccccc1OC(C)=O [compound 11],IC50,HIV-1Ba-L [1]; [3],10 µM
same,CC50 at 168 h,in vitro,48 µM
CCCCCCCSc1ccc(O)cc1 [compound 15],IC50,HIV-1Ba-L [1]; [7],3 µM
same,antiviral activity compared to APHS,HIV-1Ba-L [1],increased
same,cytotoxicity compared to APHS,PBMC,increased
same,fold increase in cytotoxicity compared to APHS,PBMC,about 10
